According to US7297700B2, “Bicycloheteroaryl compounds as P2X7 modulators and uses thereof” (Renovis, Inc., priority 2005, dated 2007):

Each molecule was assayed on IL-1β release from THP-1 cells (assay: IL-1β Release Assay (Alternate Method), THP-1 cells). Settings: Homo sapiens; at 0.3 μM; THP-1 cells; read-out: IL-1β % inhibition.
Assay type: cell-based, human
Experimental: THP-1 cells (ATCC Cat #285-IF-100) are plated in 96 well plates at a concentration of 200,000 cells per well and allowed to differentiate in RPMI-1640 media (ATCC Cat #30-2001) containing 10% FBS, 100 IU/mL penicillin, 100 ug/mL streptomycin, 100 ng/mL LPS and 100 ng/mL IFN-γ for 16 hours. Following differentiation, the cells are treated for an additional 2 hours in RPMI-1640 media containing 100 IU/mL penicillin, 100 ug/mL streptomycin and fresh LPS at 100 ng/mL. The cells are then pretreated for 30 minutes with the compound of interest at the appropriate concentration in RPMI media containing 100 IU/mL penicillin, 100 ug/mL streptomycin. Following the pretreatment 2′, 3′-O-(4-benzoylbenzoyl)-adenosine 5′-triphosphate (Sigma Aldrich Cat#B6396) is added to a final concentration of 250 uM and the cells incubated for an additional 45 minutes. 30 uL of cell supernatant is then collected and IL-1β levels determined via ELISA (R&D systems Cat. #HSLB50) according to manufacturer's recommendations using the Tecan Safire plate reader. Background adjusted IL-1β levels of drug treated and non-treated cells are used to calculate the percent inhibition.
Work on `O=C(CC12CC3CC(CC(C3)C1)C2)Nc1ncnc2c1CCN(Cc1ccc3c(c1)OCCO3)C2` [Compound 46] yielded an inhibition at 0.3 µM of over 75%.

Same assay, conditions: at 0.3 μM; THP-1 cells
`O=C(CC12CC3CC(CC(C3)C1)C2)Nc1ncnc2c1CCN(Cc1ccccc1F)C2` [Compound 28] was tested, and the IL-1β % inhibition was “++++ (compound exhibited 75% or greater inhibition at 0.3 μM)”.
For `CC12CC3CC(C)(C1)CC(CC(=O)Nc1ncnc4c1CCN(S(=O)(=O)c1cccc(Cl)c1)C4)(C3)C2` [Compound 380], the IL-1β % inhibition was “+ (compound exhibited 0-25% inhibition at 0.3 μM)”.
`NC(=O)COc1ccc(CN2CCc3c(ncnc3NC(=O)CC34CC5CC(CC(C5)C3)C4)C2)cc1` [Compound 91] was tested, and the IL-1β % inhibition was “+ (compound exhibited 0-25% inhibition at 0.3 μM)”.
For `O=C(CC12CC3CC(CC(C3)C1)C2)Nc1ncnc2c1CCN(Cc1ccc3c(c1)Cc1ccccc1-3)C2` [Compound 318], the IL-1β % inhibition was “+ (compound exhibited 0-25% inhibition at 0.3 μM)”.
`CCC(=O)N1CCc2c(ncnc2NC(=O)CC23CC4CC(CC(C4)C2)C3)C1` [Compound 223] was tested, and the IL-1β % inhibition was “+ (compound exhibited 0-25% inhibition at 0.3 μM)”.
`O=C(CC12CC3CC(CC(C3)C1)C2)Nc1ncnc2c1CCN(C(=O)c1ccccc1Cl)C2` [Compound 294] was tested, and the IL-1β % inhibition was “+++ (compound exhibited 50-75% inhibition at 0.3 μM)”.
`O=C(CC12CC3CC(CC(C3)C1)C2)Nc1ncnc2c1CCN(C(=O)c1c(F)cccc1F)C2` [Compound 247] was tested, and the IL-1β % inhibition was “++++ (compound exhibited 75% or greater inhibition at 0.3 μM)”.
`Cc1cccc(C(=O)N2CCc3c(ncnc3NC(=O)CC34CC5CC(CC(C5)C3)C4)C2)c1` [Compound 230] was tested, and the IL-1β % inhibition was “++++ (compound exhibited 75% or greater inhibition at 0.3 μM)”.
`COc1cccc(S(=O)(=O)N2CCc3c(ncnc3NC(=O)CC34CC5CC(CC(C5)C3)C4)C2)c1` [Compound 162] was tested, and the IL-1β % inhibition was “+ (compound exhibited 0-25% inhibition at 0.3 μM)”.
With `O=C(CC1CCCCCC1)Nc1ncnc2c1CCN(CCc1ccccc1)C2` [Compound 129] the IL-1β % inhibition was “+ (compound exhibited 0-25% inhibition at 0.3 μM)”.
`O=C(CC12CC3CC(CC(C3)C1)C2)Nc1ncnc2c1CCN(Cc1cccc(C(F)(F)F)c1F)C2` [Compound 131] was tested, and the IL-1β % inhibition was “+ (compound exhibited 0-25% inhibition at 0.3 μM)”.
For `O=C(CC12CC3CC(CC(C3)C1)C2)Nc1ncnc2c1CCN(Cc1cccc(OC(F)(F)F)c1)C2` [Compound 114], the IL-1β % inhibition was “+ (compound exhibited 0-25% inhibition at 0.3 μM)”.
With `COc1ccc(F)cc1CN1CCc2c(ncnc2NC(=O)CC23CC4CC(CC(C4)C2)C3)C1` [Compound 102] the IL-1β % inhibition was “+ (compound exhibited 0-25% inhibition at 0.3 μM)”.
With `O=C(NCC1(O)CCCCCC1)c1ncnc2c1CCN(Cc1ccccc1)C2` [Compound 58] the IL-1β % inhibition was “+ (compound exhibited 0-25% inhibition at 0.3 μM)”.
With `COc1ccccc1CCC(=O)Nc1ncnc2c1CCN(Cc1ccccc1)C2` [Compound 24] the IL-1β % inhibition was “+ (compound exhibited 0-25% inhibition at 0.3 μM)”.
With `COc1ccc(OC)c(CC(=O)N2CCc3c(ncnc3NC(=O)CC34CC5CC(CC(C5)C3)C4)C2)c1` [Compound 239] the IL-1β % inhibition was “++ (compound exhibited 25-50% inhibition at 0.3 μM)”.
For `Cc1cc(C(=O)N2CCc3c(ncnc3NC(=O)CC34CC5CC(CC(C5)C3)C4)C2)nn1C` [Compound 284], the IL-1β % inhibition was “++ (compound exhibited 25-50% inhibition at 0.3 μM)”.
In the case of `Cc1ccccc1CN1CCc2c(ncnc2C(=O)NCC23CC4CC(CC(C4)C2)C3)C1` [Compound 336], the IL-1β % inhibition is reported as “++++ (compound exhibited 75% or greater inhibition at 0.3 μM)”.
With `Cc1nn(C)c(Cl)c1S(=O)(=O)N1CCc2c(ncnc2NC(=O)CC23CC4CC(CC(C4)C2)C3)C1` [Compound 158] the IL-1β % inhibition was “+ (compound exhibited 0-25% inhibition at 0.3 μM)”.
For `O=C(CC12CC3CC(CC(C3)C1)C2)Nc1ncnc2c1CCN(C(=O)c1cc(F)cc(C(F)(F)F)c1)C2` [Compound 267], the IL-1β % inhibition was “++ (compound exhibited 25-50% inhibition at 0.3 μM)”.
In the case of `N#Cc1ccc(S(=O)(=O)N2CCc3c(ncnc3NC(=O)CC34CC5CC(CC(C5)C3)C4)C2)cc1` [Compound 167], the IL-1β % inhibition is reported as “++ (compound exhibited 25-50% inhibition at 0.3 μM)”.
For `O=C(CC1CCCCC1)Nc1ncnc2c1CCN(Cc1ccccc1)C2` [Compound 9], the IL-1β % inhibition was “+ (compound exhibited 0-25% inhibition at 0.3 μM)”.
In the case of `Cc1ccc(CN2CCc3c(ncnc3C(=O)NCC3CCCCC3)C2)cc1` [Compound 55], the IL-1β % inhibition is reported as “+ (compound exhibited 0-25% inhibition at 0.3 μM)”.
`COc1ccc(S(=O)(=O)N2CCc3c(ncnc3NC(=O)CC34CC5CC(CC(C5)C3)C4)C2)c(OC)c1` [Compound 197] was tested, and the IL-1β % inhibition was “++++ (compound exhibited 75% or greater inhibition at 0.3 μM)”.
`O=C(CC12CC3CC(CC(C3)C1)C2)Nc1ncnc2c1CCN(Cc1cccc(Cl)c1)C2` [Compound 34] was tested, and the IL-1β % inhibition was “+ (compound exhibited 0-25% inhibition at 0.3 μM)”.
For `O=C(CC12CC3CC(CC(C3)C1)C2)Nc1ncnc2c1CCN(C(=O)c1ccc(C(F)(F)F)cc1)C2` [Compound 243], the IL-1β % inhibition was “+++ (compound exhibited 50-75% inhibition at 0.3 μM)”.
With `O=C(CC12CC3CC(CC(C3)C1)C2)Nc1ncnc2c1CCN(Cc1ccc(F)c(C(F)(F)F)c1)C2` [Compound 106] the IL-1β % inhibition was “+ (compound exhibited 0-25% inhibition at 0.3 μM)”.
For `COc1ccc(CC(=O)N2CCc3c(ncnc3NC(=O)CC34CC5CC(CC(C5)C3)C4)C2)cc1OC` [Compound 254], the IL-1β % inhibition was “+ (compound exhibited 0-25% inhibition at 0.3 μM)”.

Same assay, conditions: at 0.3 μM; THP-1 cells, BzATP-stimulated
For `CC(C)(C)C(=O)N1CCc2c(ncnc2NC(=O)C23CC4CC(CC(C4)C2)C3)C1` [Compound 424], the IL-1β % inhibition was “+ (compound exhibited 0-25% inhibition at 0.3 μM)”.
With `O=C(Nc1ncnc2c1CCN(Cc1ccc3c(c1)OCO3)C2)C12CC3CC(CC(C3)C1)C2` [Compound 564] the IL-1β % inhibition was “++++ (compound exhibited 75% or greater inhibition at 0.3 μM)”.
With `N#Cc1cc(CN2CCc3c(ncnc3NC(=O)C34CC5CC(CC(C5)C3)C4)C2)ccc1F` [Compound 595] the IL-1β % inhibition was “+ (compound exhibited 0-25% inhibition at 0.3 μM)”.
`O=C(Nc1ncnc2c1CCN(Cc1ccc(OC(F)F)cc1)C2)C12CC3CC(CC(C3)C1)C2` [Compound 621] was tested, and the IL-1β % inhibition was “+++ (compound exhibited 50-75% inhibition at 0.3 μM)”.
`O=C(Nc1ncnc2c1CCN(Cc1cccc(F)c1)C2)C12CC3CC(CC(C3)C1)C2` [Compound 605] was tested, and the IL-1β % inhibition was “+ (compound exhibited 0-25% inhibition at 0.3 μM)”.
In the case of `O=C(Nc1ncnc2c1CCN(Cc1ccncc1)C2)C12CC3CC(CC(C3)C1)C2` [Compound 610], the IL-1β % inhibition is reported as “+ (compound exhibited 0-25% inhibition at 0.3 μM)”.
In the case of `O=C(Nc1ncnc2c1CCN(Cc1cccc(Br)c1)C2)C12CC3CC(CC(C3)C1)C2` [Compound 614], the IL-1β % inhibition is reported as “+ (compound exhibited 0-25% inhibition at 0.3 μM)”.
For `O=C(COc1ccc(Cl)cc1)N1CCc2c(ncnc2NC(=O)C23CC4CC(CC(C4)C2)C3)C1` [Compound 436], the IL-1β % inhibition was “++ (compound exhibited 25-50% inhibition at 0.3 μM)”.
In the case of `N#Cc1ccc(CN2CCc3c(ncnc3NC(=O)C34CC5CC(CC(C5)C3)C4)C2)cc1` [Compound 603], the IL-1β % inhibition is reported as “+ (compound exhibited 0-25% inhibition at 0.3 μM)”.
For `COc1ccc(-c2ccc(S(=O)(=O)N3CCc4c(ncnc4NC(=O)C45CC6CC(CC(C6)C4)C5)C3)cc2)cc1` [Compound 512], the IL-1β % inhibition was “++ (compound exhibited 25-50% inhibition at 0.3 μM)”.
With `O=C(Nc1ncnc2c1CCN(Cc1ccc(Cl)c(Cl)c1)C2)C12CC3CC(CC(C3)C1)C2` [Compound 590] the IL-1β % inhibition was “+ (compound exhibited 0-25% inhibition at 0.3 μM)”.
With `COc1cccc(CN2CCc3c(ncnc3NC(=O)C34CC5CC(CC(C5)C3)C4)C2)c1` [Compound 584] the IL-1β % inhibition was “+ (compound exhibited 0-25% inhibition at 0.3 μM)”.
`O=C(Nc1ncnc2c1CCN(Cc1ccc(Cl)cc1Cl)C2)C12CC3CC(CC(C3)C1)C2` [Compound 570] was tested, and the IL-1β % inhibition was “++ (compound exhibited 25-50% inhibition at 0.3 μM)”.
With `CCOc1ccc(CN2CCc3c(ncnc3NC(=O)C34CC5CC(CC(C5)C3)C4)C2)cc1` [Compound 630] the IL-1β % inhibition was “++++ (compound exhibited 75% or greater inhibition at 0.3 μM)”.
For `O=C(Cc1ccc(F)cc1)N1CCc2c(ncnc2NC(=O)C23CC4CC(CC(C4)C2)C3)C1` [Compound 413], the IL-1β % inhibition was “++ (compound exhibited 25-50% inhibition at 0.3 μM)”.
For `O=C(Nc1ncnc2c1CCN(S(=O)(=O)c1ccc(Oc3ccc(C(F)(F)F)cc3)cc1)C2)C12CC3CC(CC(C3)C1)C2` [Compound 510], the IL-1β % inhibition was “++++ (compound exhibited 75% or greater inhibition at 0.3 μM)”.
With `COc1ccc(C(=O)N2CCc3c(ncnc3NC(=O)C34CC5CC(CC(C5)C3)C4)C2)cc1OC` [Compound 476] the IL-1β % inhibition was “++ (compound exhibited 25-50% inhibition at 0.3 μM)”.
In the case of `O=C(c1ccc(F)cc1F)N1CCc2c(ncnc2NC(=O)C23CC4CC(CC(C4)C2)C3)C1` [Compound 449], the IL-1β % inhibition is reported as “++ (compound exhibited 25-50% inhibition at 0.3 μM)”.
With `Cc1ccccc1C(=O)N1CCc2c(ncnc2NC(=O)C23CC4CC(CC(C4)C2)C3)C1` [Compound 450] the IL-1β % inhibition was “+ (compound exhibited 0-25% inhibition at 0.3 μM)”.
With `O=C(Nc1ncnc2c1CCN(S(=O)(=O)c1ccccc1C(F)(F)F)C2)C12CC3CC(CC(C3)C1)C2` [Compound 528] the IL-1β % inhibition was “++ (compound exhibited 25-50% inhibition at 0.3 μM)”.
In the case of `O=C(C(c1ccccc1)c1ccccc1)N1CCc2c(ncnc2NC(=O)C23CC4CC(CC(C4)C2)C3)C1` [Compound 409], the IL-1β % inhibition is reported as “+ (compound exhibited 0-25% inhibition at 0.3 μM)”.
